Source: ChEMBL document CHEMBL1201862, “PubChem BioAssay data set” (2004)
Activity calls are given as the source filed them.

Key:
[1] = luciferase reporter signal suppression in cells – H4 neuroglioma cells, luminescence, dose response (AID 1990); format: functional, cell-based
BJ [2] = test: BJ-TERT fibroblast viability loss – cell-based, RAS-independent, luminescence, dose response (AID 1933); format: functional; details: Homo sapiens
[3] = biological target: Luciferin 4-monooxygenase (Photinus pyralis, UniProt P08659); test: Counter Screen for Luciferase-based Assay Positives. [Related pubchem assays: 620, 618, 411 ]
Sequence of Luciferin 4-monooxygenase (P08659 whole entry): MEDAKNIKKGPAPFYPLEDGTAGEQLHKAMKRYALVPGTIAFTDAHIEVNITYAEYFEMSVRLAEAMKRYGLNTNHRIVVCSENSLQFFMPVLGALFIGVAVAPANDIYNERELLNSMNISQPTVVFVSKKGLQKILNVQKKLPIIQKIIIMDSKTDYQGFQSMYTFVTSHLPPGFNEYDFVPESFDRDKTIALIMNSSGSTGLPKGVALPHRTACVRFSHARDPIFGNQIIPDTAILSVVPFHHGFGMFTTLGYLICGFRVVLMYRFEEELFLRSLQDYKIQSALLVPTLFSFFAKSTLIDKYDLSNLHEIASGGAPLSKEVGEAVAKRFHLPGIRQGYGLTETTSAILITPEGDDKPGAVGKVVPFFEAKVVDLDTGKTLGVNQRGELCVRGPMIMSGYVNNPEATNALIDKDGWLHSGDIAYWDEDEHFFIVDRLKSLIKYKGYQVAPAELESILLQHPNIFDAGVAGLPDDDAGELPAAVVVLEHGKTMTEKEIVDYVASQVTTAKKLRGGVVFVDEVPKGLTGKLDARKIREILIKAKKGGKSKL

[4] = Luminescence Cell-Based Dose Response HTS to Identify Inhibitors of 5'UTR Stem-Loop Driven Prion Protein mRNA Translation in H4 Neuroglioblastoma Cells. [Related pubchem assays: 1827 (Project Summary), 1813 (Primary HTS)]; format: functional
[5] = alpha-synuclein stem-loop luciferase translation blockers – H4 neuroglioma cells, luminescence, confirmation (AID 1988); format: functional, cell-based
BJ [6] = test: cells; format: functional, cell-based; details: Homo sapiens
[7] = biological target: Mothers against decapentaplegic homolog 3 (Homo sapiens, UniProt P84022); test: inhibitors of SMAD-driven TGF-beta signaling – dose response (AID 715); format: functional
Sequence of Mothers against decapentaplegic homolog 3 (P84022 whole entry): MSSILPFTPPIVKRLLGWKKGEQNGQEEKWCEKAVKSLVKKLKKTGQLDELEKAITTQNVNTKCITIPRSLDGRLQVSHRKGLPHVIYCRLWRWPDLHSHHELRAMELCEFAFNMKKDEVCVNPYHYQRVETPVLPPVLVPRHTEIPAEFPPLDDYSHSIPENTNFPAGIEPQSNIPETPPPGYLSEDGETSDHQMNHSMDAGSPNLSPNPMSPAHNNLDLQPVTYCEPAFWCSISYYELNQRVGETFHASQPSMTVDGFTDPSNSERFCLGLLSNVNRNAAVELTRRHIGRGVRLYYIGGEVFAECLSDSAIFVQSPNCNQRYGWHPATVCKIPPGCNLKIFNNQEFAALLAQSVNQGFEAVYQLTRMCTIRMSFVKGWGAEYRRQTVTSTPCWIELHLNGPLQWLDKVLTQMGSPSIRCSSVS

HT-1080 = test: HT1080 cell viability loss – fluorescence readout (AID 620); format: functional, cell-based; details: Homo sapiens
BJ [8] = test: BJ-TERT-LT-ST fibroblast viability loss – cell-based, RAS-independent, luminescence, dose response (AID 1935); format: functional; details: Homo sapiens;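 further: BJ fibroblasts immortalized with TERT plus LT and ST oncogenes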
[9] = DRD fibroblast viability loss – cell-based, non-viral oncogenic, luminescence, dose response (AID 1934); format: functional; details: Homo sapiens
Hexokinase HKDC1 = biological target: T1, Hexokinase HKDC1 (Homo sapiens, UniProt Q2TB90); test: inhibition of HKDC1 glucose phosphorylation – biochemical, W721R variant, dose response (AID 504729); format: functional
T1 sequence (Q2TB90 whole entry): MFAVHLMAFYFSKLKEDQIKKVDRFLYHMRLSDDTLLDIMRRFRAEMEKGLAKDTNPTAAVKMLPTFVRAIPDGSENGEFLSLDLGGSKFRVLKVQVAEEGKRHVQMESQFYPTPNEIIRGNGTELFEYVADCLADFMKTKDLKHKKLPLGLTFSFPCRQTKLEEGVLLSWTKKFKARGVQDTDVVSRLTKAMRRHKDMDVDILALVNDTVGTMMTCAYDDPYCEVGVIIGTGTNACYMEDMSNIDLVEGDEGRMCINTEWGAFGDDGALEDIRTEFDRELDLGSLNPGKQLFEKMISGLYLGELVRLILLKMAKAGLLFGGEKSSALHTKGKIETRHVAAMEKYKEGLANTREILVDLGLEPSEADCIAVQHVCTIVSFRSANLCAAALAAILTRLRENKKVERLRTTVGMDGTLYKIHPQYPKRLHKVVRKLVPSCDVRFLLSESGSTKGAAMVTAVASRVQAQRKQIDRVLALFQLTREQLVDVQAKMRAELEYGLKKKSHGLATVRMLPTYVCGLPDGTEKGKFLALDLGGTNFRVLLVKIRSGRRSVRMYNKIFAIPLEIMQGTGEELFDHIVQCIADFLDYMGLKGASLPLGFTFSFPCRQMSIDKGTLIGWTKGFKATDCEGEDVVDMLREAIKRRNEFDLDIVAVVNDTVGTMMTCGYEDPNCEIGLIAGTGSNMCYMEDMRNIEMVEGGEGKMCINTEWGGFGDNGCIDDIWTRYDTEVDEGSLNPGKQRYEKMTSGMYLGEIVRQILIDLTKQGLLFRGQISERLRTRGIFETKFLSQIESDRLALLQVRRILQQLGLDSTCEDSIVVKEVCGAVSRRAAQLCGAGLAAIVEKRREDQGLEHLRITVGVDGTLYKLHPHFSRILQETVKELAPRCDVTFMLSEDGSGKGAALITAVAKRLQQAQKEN

[10] = biological target: T2, Apoptotic protease-activating factor 1 (Homo sapiens, UniProt O14727); format: functional
T2 sequence (O14727 whole entry): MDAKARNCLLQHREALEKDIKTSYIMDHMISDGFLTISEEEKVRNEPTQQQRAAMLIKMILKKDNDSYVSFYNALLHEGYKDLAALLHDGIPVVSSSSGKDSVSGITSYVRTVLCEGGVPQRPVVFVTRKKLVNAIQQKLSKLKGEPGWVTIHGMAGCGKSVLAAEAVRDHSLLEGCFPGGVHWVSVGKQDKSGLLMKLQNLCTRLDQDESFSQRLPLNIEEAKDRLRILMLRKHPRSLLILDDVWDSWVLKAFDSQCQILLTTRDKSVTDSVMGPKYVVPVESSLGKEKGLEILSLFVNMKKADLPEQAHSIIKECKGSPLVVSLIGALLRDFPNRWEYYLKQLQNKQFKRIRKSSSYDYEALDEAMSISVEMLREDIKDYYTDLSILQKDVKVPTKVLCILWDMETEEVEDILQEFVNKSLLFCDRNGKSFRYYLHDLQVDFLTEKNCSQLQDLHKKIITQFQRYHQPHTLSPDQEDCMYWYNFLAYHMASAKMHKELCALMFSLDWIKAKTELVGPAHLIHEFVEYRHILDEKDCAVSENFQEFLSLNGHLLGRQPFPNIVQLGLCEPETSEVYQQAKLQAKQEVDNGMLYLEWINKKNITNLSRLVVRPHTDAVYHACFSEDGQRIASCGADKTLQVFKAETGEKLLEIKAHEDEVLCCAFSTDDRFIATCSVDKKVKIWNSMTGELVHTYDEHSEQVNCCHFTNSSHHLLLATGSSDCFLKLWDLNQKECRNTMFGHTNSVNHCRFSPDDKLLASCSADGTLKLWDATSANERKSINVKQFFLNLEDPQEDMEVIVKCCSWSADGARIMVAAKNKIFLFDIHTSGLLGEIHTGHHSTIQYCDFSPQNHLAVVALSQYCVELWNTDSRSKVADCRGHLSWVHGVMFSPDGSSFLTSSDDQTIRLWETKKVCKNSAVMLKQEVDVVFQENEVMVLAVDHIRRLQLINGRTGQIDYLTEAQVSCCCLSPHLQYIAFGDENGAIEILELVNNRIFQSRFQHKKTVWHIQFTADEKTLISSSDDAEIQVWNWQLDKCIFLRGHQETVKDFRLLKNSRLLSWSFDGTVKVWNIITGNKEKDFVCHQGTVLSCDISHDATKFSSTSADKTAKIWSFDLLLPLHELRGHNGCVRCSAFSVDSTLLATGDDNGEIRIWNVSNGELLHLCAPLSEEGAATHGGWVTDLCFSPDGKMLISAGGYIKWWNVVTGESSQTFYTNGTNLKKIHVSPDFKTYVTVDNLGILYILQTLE

[11] = biological target: Mitochondrial peptide methionine sulfoxide reductase (Bos taurus, UniProt P54149); format: functional;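 further: absorbance read-out, biochemical high-throughput dose-response screen for MsrA inhibitors, confirmatory; recombinant bovine MsrA coupled to E. coli TrxB with NADPH and selenocystamine; potency is for inhibitors of MsrA activity on DMSO substrate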
Sequence of Mitochondrial peptide methionine sulfoxide reductase (P54149 whole entry): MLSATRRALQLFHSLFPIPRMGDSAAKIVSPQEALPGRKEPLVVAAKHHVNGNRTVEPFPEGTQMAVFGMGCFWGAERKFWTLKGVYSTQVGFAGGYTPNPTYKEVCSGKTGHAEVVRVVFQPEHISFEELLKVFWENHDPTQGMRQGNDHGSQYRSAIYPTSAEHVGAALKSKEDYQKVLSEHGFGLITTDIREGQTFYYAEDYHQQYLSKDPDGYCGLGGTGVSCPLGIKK

[12] = IC50 of Artemis nuclease activity blockers – biochemical, fluorescence intensity, dose response (AID 720701); format: functional;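 further: Artemis endonuclease enzyme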
[13] = biological target: Tyrosyl-DNA phosphodiesterase 2 (Homo sapiens, UniProt O95551); test: potency against TDP2 phosphodiesterase activity – biochemical, epi absorbance, IC50, dose response (AID 743297)
Sequence of Tyrosyl-DNA phosphodiesterase 2 (O95551 whole entry): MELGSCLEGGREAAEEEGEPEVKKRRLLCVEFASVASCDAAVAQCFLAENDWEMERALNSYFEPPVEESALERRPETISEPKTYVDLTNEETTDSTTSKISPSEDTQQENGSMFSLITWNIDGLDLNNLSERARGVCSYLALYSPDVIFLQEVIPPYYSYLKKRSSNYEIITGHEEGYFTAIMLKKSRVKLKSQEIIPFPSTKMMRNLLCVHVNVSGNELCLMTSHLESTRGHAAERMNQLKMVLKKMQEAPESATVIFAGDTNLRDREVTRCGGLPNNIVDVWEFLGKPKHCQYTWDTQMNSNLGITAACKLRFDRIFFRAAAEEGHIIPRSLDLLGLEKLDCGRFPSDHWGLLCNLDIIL

HEK293 = test: Fluorescence-based counterscreen for potentiators or agonists of NPY-Y2: cell-based high-throughput dose response assay to identify inhibitors of cyclic nucleotide gated ion channel (CNGC) activity. In this assay, the parental HEK293 cell line transfected with a cyclic-nucleotide gated ion channel (CNGC)-based cAMP sensor is used to measure inhibition of isoproterenol-induced CNGC activity by test compound.; format: functional; details: Homo sapiens;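 further: stimulus is 1 µM isoproterenol at EC100 plus PDE inhibitor Ro 20-1724 at 25 µM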
[14] = biological target: Neuropeptide Y receptor type 2 (Homo sapiens, UniProt P49146); test: Fluorescence-based cell-based high-throughput dose response assay for agonists of NPY-Y2. [Related pubchem assays: 1703 (Screening assay (CNGC inhibitors).), 1359 (Screening assay (NPY-Y2 potentiators or agonists).), 1304 (Screening assay (NPY-Y1 potentiators or agonists).), 1710 (Screening assay (NPY-Y2 agonists).), 1791 (Summary AID.)]; format: functional
Sequence of Neuropeptide Y receptor type 2 (P49146 whole entry): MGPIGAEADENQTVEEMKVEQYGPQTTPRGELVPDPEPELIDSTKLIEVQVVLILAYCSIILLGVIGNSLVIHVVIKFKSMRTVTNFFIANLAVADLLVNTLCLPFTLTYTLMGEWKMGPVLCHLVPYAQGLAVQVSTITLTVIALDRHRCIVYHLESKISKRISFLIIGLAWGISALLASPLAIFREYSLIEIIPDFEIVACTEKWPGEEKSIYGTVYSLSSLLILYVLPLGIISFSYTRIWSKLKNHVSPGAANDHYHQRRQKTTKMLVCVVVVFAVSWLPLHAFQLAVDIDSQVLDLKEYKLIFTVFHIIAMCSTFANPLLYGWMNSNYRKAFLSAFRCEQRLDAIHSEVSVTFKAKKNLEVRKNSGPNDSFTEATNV

[15] = biological target: Neuropeptide Y receptor type 1 (Homo sapiens, UniProt P25929); test: Fluorescence-based counterscreen for agonists of NPY-Y2: cell-based high-throughput dose response assay for agonists of NPY-Y1.; format: functional
Sequence of Neuropeptide Y receptor type 1 (P25929 whole entry, the tested form may be a part): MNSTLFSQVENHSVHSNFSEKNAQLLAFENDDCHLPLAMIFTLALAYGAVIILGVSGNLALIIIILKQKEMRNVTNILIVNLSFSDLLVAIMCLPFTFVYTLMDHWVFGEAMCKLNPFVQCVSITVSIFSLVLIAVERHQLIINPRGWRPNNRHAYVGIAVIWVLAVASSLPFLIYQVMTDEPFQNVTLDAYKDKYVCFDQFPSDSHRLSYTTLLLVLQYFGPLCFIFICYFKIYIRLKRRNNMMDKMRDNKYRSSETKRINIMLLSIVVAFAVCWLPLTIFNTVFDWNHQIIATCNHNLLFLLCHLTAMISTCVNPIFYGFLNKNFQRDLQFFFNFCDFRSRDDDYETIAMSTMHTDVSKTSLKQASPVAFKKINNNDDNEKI

[16] = CCR5-tropic HIV-1 fusion blockers – cell-based, CCR5-tropic Env, dose response (AID 2279); format: functional
[17] = biological target: T3, High affinity choline transporter 1 (Homo sapiens, UniProt Q9GZV3); test: human choline transporter blockers, potency – cell-based, 5-point CRC, membrane potential dye, dose response (AID 504840); format: functional
T3 sequence (Q9GZV3 whole entry): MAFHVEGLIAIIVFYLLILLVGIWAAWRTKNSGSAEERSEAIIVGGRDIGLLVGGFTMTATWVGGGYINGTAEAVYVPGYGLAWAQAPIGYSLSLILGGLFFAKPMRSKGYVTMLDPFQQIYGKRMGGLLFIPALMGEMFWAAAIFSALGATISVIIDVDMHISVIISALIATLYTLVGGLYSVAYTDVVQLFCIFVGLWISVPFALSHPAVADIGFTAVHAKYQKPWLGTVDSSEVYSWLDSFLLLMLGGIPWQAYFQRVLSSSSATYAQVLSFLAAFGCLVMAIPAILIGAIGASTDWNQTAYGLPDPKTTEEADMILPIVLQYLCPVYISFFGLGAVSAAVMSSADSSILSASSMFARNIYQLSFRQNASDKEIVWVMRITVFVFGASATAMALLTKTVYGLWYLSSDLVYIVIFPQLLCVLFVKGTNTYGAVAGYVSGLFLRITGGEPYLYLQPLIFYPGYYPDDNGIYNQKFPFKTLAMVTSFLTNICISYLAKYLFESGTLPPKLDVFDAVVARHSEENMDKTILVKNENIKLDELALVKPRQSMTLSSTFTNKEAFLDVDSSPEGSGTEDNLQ

[18] = biological target: T3, High affinity choline transporter 1; test: human choline transporter blockers, potency – cell-based, 10-point CRC, membrane potential dye, dose response (AID 588401); format: functional;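 further: membrane potential dye fluorescence of choline-evoked depolarization via CHT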

With `O=C1C(N2CCOCC2)=C(n2nnc3ccccc32)C(=O)c2ccccc21` the EC50 [1] was > 120 µM (not active), the EC50 (BJ [2]) was 8.79 µM (active) and the EC50 [3] was 1.63 µM (active). The EC50 [4] was 8.93 µM (active), the EC50 [5] was > 120 µM (not active) and the EC50 (BJ [6]) was 5.06 µM (active). For the same compound, the IC50 [7] was 22 µM (active), the EC50 (HT-1080) was 12.3 µM (active) and the EC50 (BJ [8]) was > 150 µM (inconclusive). For the same compound, the EC50 [9] was 10.5 µM (active), the IC50 (Hexokinase HKDC1) was 7.01 µM (active) and the IC50 [10] was 4.02 µM (active). The IC50 [11] was 9.33 µM (active), the IC50 [12] was 7.75 µM (active) and the IC50 [13] was 10 µM (inactive).
With `COc1ccc(Cn2cnc3c(NS(C)(=O)=O)c(C)c(C)cc32)cc1` the EC50 (HEK293) was > 35.4 µM (not active), the EC50 [14] was > 35.4 µM (not active) and the EC50 [15] was 19.3 µM (not active).
With `CCS(=O)(=O)C1=NSC2=NC(=O)/C(=C\c3ccc(OS(=O)(=O)c4ccccc4)cc3)C(=N)N21` the IC50 [16] was 36.5 µM (active), the IC50 [17] was 5.22 µM (active) and the IC50 [18] was 8.91 µM (active).
